From ChEMBL document CHEMBL4420073, “Small molecule inhibitors of MUC1 and methods of identifying the same” (2015)
Calls of active or inactive are those of the source. The calls are words filed in the database; no cut-off is given here.

Tests used:
[1] = molecular target: Mucin-1 (Homo sapiens) (UniProt P15941); test: Inhibition of His-tagged MUC1-CD dimerization (unknown origin) assessed as decrease in oligomer formation incubated for 1 hr by SDS-polyacrylamide electrophoresis method based luminescence assay
Mucin-1 (Homo sapiens), sequence (P15941 24-1097 limits assumed): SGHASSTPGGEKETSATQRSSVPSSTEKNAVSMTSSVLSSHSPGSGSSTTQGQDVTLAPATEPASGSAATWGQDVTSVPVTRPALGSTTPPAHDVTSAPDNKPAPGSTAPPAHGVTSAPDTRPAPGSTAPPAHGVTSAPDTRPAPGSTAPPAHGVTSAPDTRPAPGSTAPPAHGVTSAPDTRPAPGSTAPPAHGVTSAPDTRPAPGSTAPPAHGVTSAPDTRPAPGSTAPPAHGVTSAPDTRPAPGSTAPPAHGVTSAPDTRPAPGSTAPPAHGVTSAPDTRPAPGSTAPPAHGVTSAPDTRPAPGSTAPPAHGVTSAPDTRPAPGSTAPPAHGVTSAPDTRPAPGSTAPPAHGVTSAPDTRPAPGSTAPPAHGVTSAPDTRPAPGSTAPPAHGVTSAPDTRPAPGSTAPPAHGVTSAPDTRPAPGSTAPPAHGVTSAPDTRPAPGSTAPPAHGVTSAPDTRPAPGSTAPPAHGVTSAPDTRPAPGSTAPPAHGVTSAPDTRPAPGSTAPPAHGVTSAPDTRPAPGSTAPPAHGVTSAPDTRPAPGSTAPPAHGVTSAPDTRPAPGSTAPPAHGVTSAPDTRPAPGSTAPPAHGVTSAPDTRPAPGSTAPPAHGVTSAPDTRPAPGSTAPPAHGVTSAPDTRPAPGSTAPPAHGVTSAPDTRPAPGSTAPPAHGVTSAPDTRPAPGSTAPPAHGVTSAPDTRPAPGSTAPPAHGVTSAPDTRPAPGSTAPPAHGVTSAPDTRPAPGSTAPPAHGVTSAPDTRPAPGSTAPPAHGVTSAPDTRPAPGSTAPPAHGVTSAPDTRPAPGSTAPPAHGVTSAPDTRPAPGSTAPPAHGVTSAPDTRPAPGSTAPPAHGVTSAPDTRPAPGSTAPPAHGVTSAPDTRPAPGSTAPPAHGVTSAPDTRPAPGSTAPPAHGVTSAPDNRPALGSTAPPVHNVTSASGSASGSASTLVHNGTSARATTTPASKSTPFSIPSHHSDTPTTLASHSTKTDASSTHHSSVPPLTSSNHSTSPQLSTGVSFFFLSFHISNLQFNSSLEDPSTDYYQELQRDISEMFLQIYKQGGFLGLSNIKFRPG
Mucin-1 (Homo sapiens), sequence (P15941 1098-1255 limits assumed): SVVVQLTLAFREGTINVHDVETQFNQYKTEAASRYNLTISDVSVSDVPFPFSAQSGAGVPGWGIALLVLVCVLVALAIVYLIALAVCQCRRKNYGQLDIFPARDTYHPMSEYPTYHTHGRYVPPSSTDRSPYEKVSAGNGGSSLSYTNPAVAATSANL

[2] = molecular target: Mucin-1 (Homo sapiens) (UniProt P15941); test: Inhibition of MUC1-CD dimerization (unknown origin) expressed in HEK293 cells assessed as disruption of interaction between Flag-MUC1-CD and GFP-MUC1-CD at […] by coimmunoprecipitation assay; assay type: cell-based
[3] = Drug uptake in human ZR-75-1 cells assessed as mean fluorescence intensity at 5 uM using FITC-tagged peptide incubated for 2 hrs by flow cytometry (reference value: 24); assay type: ADME, cell-based; conditions: zr-75-1, 2 h
[4] = Drug uptake in human ZR-75-1 cells assessed as mean fluorescence intensity at 5 uM using FITC-tagged peptide incubated for 6 hrs by flow cytometry (reference value: 24); assay type: ADME, cell-based; conditions: zr-75-1, 6 h
[5] = Drug uptake in human ZR-75-1 cells assessed as mean fluorescence intensity at 5 uM using FITC-tagged peptide incubated for 24 hrs by flow cytometry (reference value: 24); assay type: ADME, cell-based; conditions: zr-75-1, 24 h
[6] = system: ZR-75-1; test: Effect on cellular MUC1-C levels in human ZR-75-1 cells at 5 uM using FITC-tagged peptide by Western blot analysis; assay type: functional, cell-based
[7] = molecular target: Mucin-1 (Homo sapiens) (UniProt P15941); test: Inhibition of MUC1 nuclear import in human ZR-75-1 cells assessed as decrease in nuclear MUC1-C levels at 5 uM by Western blot analysis; assay type: cell-based
[8] = molecular target: Mucin-1 (Homo sapiens) (UniProt P15941); test: Inhibition of MUC1 nuclear import in human MCF7 cells assessed as decrease in nuclear MUC1-C levels at 5 uM by Western blot analysis; assay type: cell-based
[9] = system: ZR-75-1; test: Induction of cell cycle arrest in human ZR-75-1 cells assessed as accumulation at G1 phase at 5 uM incubated for 3 days by propidium iodide staining based flow cytometry (reference value: 64%); assay type: functional
[10] = system: ZR-75-1; test: Induction of cell cycle arrest in human ZR-75-1 cells assessed as accumulation at S phase at 5 uM incubated for 3 days by propidium iodide staining based flow cytometry (reference value: 29%); assay type: functional
[11] = system: ZR-75-1; test: Induction of cell cycle arrest in human ZR-75-1 cells assessed as accumulation at G2 phase at 5 uM incubated for 3 days by propidium iodide staining based flow cytometry (reference value: 7%); assay type: functional
[12] = system: ZR-75-1; test: Induction of cell cycle arrest in human ZR-75-1 cells assessed as accumulation at G1 phase at 5 uM incubated for 4 days by propidium iodide staining based flow cytometry (reference value: 64%); assay type: functional
[13] = system: ZR-75-1; test: Induction of cell cycle arrest in human ZR-75-1 cells assessed as accumulation at S phase at 5 uM incubated for 4 days by propidium iodide staining based flow cytometry (reference value: 29%); assay type: functional
[14] = system: ZR-75-1; test: Induction of cell cycle arrest in human ZR-75-1 cells assessed as accumulation at G2 phase at 5 uM incubated for 4 days by propidium iodide staining based flow cytometry (reference value: 7%); assay type: functional
[15] = system: ZR-75-1; test: Induction of necrosis in human ZR-75-1 cells at 5 uM incubated for 3 days by propidium iodide staining based flow cytometry (reference value: 8%); assay type: functional
[16] = system: ZR-75-1; test: Induction of necrosis in human ZR-75-1 cells at 5 uM incubated for 4 days by propidium iodide staining based flow cytometry (reference value: 8%); assay type: functional
[17] = system: MCF7; test: Induction of cell cycle arrest in human MCF7 cells assessed as accumulation at G1 phase at 5 uM incubated for 3 days by propidium iodide staining based flow cytometry (reference value: 70%); assay type: functional
[18] = system: MCF7; test: Induction of cell cycle arrest in human MCF7 cells assessed as accumulation at S phase at 5 uM incubated for 3 days by propidium iodide staining based flow cytometry (reference value: 21%); assay type: functional
[19] = system: MCF7; test: Induction of cell cycle arrest in human MCF7 cells assessed as accumulation at G2 phase at 5 uM incubated for 3 days by propidium iodide staining based flow cytometry (reference value: 9%); assay type: functional
[20] = system: MCF7; test: Induction of necrosis in human MCF7 cells at 5 uM incubated for 3 days by propidium iodide staining based flow cytometry (reference value: 5%); assay type: functional
[21] = system: MCF7; test: Induction of necrosis in human MCF7 cells at 5 uM incubated for 4 days by propidium iodide staining based flow cytometry (reference value: 5%); assay type: functional
[22] = system: ZR-75-1; test: Growth inhibition in human ZR-75-1 cells assessed as reduction in cell number up to 96 hrs in presence of MUC1 siRNA; assay type: functional, cell-based
[23] = system: ZR-75-1; test: Growth inhibition in human ZR-75-1 cells assessed as reduction in cell number up to 96 hrs in presence of control siRNA; assay type: functional, cell-based
[24] = system: HEK293; test: Growth inhibition of HEK293 cells assessed as reduction in cell number up to 96 hrs; assay type: cell-based; conditions: human, hek293, 96 h
[25] = system: MCF-10A; test: Induction of cell cycle arrest in human MCF10A cells assessed as accumulation at S phase at 5 uM incubated for 3 days by propidium iodide staining based flow cytometry (reference value: 38%); conditions: 72 h
[26] = system: MCF-10A; test: Induction of cell cycle arrest in human MCF10A cells assessed as accumulation at S phase at 5 uM incubated for 4 days by propidium iodide staining based flow cytometry (reference value: 38%); conditions: 96 h
[27] = system: MCF-10A; test: Growth inhibition in human MCF10A cells assessed as reduction in cell number up to 96 hrs; assay type: cell-based
[28] = Toxicity in nu/nu mouse assessed as effect on body weight at 50 mg/kg, ip for 11 days measured over next 28 days after stopping drug administration; assay type: organism-based; conditions: in vivo, 672 h
[29] = system: ZR-75-1; test: Antitumor activity against human ZR-75-1 xenografted in nu/nu mouse assessed as reduction in tumor growth at 50 mg/kg/day, ip for 7 days measured on day 7; assay type: functional, organism-based
[30] = system: ZR-75-1; test: Antitumor activity against human ZR-75-1 xenografted in nu/nu mouse assessed as reduction in tumor growth at 50 mg/kg/day, ip for 7 days followed by treatment cessation and measured over next 17 days; assay type: functional, organism-based
[31] = system: ZR-75-1; test: Antitumor activity against human ZR-75-1 xenografted in nu/nu mouse assessed as induction of necrosis in tumor at 50 mg/kg/day, ip for 21 days; assay type: functional, organism-based
[32] = system: ZR-75-1; test: Suppression of MUC1 protein expression in tumor area of human ZR-75-1 xenografted in nu/nu mouse at 50 mg/kg/day, ip for 21 days; assay type: functional, organism-based
[33] = molecular target: Mucin-1 (Homo sapiens) (UniProt P15941); test: Inhibition of biotinylated MUC1-CD dimerization (unknown origin) assessed as decrease in oligomer formation at 100 uM by streptavidin-HRP based assay relative to control

CC[C@H](C)[C@H](NC(=O)[C@H](CC(=O)O)NC(=O)[C@H](CC(C)C)NC(=O)[C@H](CCC(N)=O)NC(=O)CNC(=O)[C@H](Cc1ccc(O)cc1)NC(=O)[C@H](CC(N)=O)NC(=O)[C@H](CCCCN)NC(=O)[C@H](CCCNC(=N)N)NC(=O)[C@H](CCCNC(=N)N)NC(=O)[C@H](CS)NC(=O)[C@H](CCC(N)=O)NC(=O)[C@H](CS)NC(=O)[C@H](CCCNC(=N)N)NC(=O)[C@@H](CCCNC(=N)N)NC(=O)[C@@H](CCCNC(=N)N)NC(=O)[C@@H](CCCNC(=N)N)NC(=O)[C@@H](CCCNC(=N)N)NC(=O)[C@@H](CCCNC(=N)N)NC(=O)[C@@H](CCCNC(=N)N)NC(=O)[C@@H](CCCNC(=N)N)NC(=O)[C@H](N)CCCNC(=N)N)C(=O)N[C@@H](Cc1ccccc1)C(=O)N1CCC[C@H]1C(=O)O
inhibition [1]: Active | inhibition [2]: Active | Flu intensity [3]: 145 | Flu intensity [4]: 252 | Flu intensity [5]: 615 | Activity [6]: inactive | inhibition [7]: Active | inhibition [8]: Active | Activity [9]: 29% | Activity [10]: 69% | Activity [11]: 2% | Activity [12]: 49% | Activity [13]: 37% | Activity [14]: 14% | Activity [15]: 34% | Activity [16]: 74% | Activity [17]: 54% | Activity [18]: 46% | Activity [19]: 0% | Activity [20]: 24% | Activity [21]: 44% | growth inhibition (GI) [22]: inactive | growth inhibition (GI) [23]: Active | growth inhibition (GI) [24]: Non-Toxic | Activity [25]: 42% | Activity [26]: 42% | growth inhibition (GI) [27]: Non-Toxic | Activity [28]: Non-Toxic | Activity [29]: Active | Activity [30]: Active | Activity [31]: Active | Activity [32]: Active

CCCc1cc2c(=O)c(-c3ccc4c(c3)OCCCO4)c(C)oc2cc1OC
inhibition [33]: > 50%

CC(=O)C(C)Oc1ccc2c(-c3ccccc3)cc(=O)oc2c1 (stereo unspecified)
inhibition [33]: > 50%

O=c1cc(C(F)(F)F)c2ccc(OCc3ccccc3)cc2o1
inhibition [33]: > 50%

COc1ccc2c(=O)c(-c3cscn3)c(C(F)(F)F)oc2c1
inhibition [33]: > 50%
